# Reference: patent US9879032B2, “Pyridine compounds” (Daiichi Sankyo Company, Limited, priority 2015, dated 2018)
# Target: human TNAP (Homo sapiens (Human), UniProt P05186)
# Experiment: Inhibitory test of TNAP activity (pNPP substrate, p-nitrophenol production)
# Type: biochemical
# Details: inhibition of human TNAP activity, incubated at room temperature for 60 minutes
# Method: COS 1 cells (DS Pharma Biomedical Co., Ltd.) were transfected with human TNAP (OriGene Technologies, Inc.) using Lipofectamine LTX & Plus reagent (Invitrogen Corp.). On the next day, the medium was replaced with a fresh medium, and the cells were cultured in an incubator for 3 days. After 3 days, the culture supernatant was collected and concentrated by centrifugation at 5000 G for 30 minutes using Amicon 14, 10^4 cut (Merck Millipore). The concentrated culture supernatant was dialyzed against 5 L of 50 mM Tris/200 mM NaCl/1 mM MgCl2/20 μM ZnCl2 twice and used as an enzyme source (enzyme solution). The substrate pNPP (ProteoChem Inc.) was adjusted to 3.1 mM with Milli-Q water, and a solution of each test compound dissolved in dimethyl sulfoxide (DMSO; Wako Pure Chemical Industries, Ltd.) by 6 serial dilutions at a 5-fold common ratio from 100 μM, or DMSO was added thereto at a final concentration of 1% by volume. The enzyme solution adjusted to 2 μg/mL with an assay buffer (200 mM Tris/2 mM MgCl2/0.04 mM ZnCl2/0.01% Tween 20) was added in the same amount of the substrate solution and incubated at room temperature for 60 minutes. Then, the absorbance (ABS: 405 nm) was measured using a microplate reader (model plus 384, Molecular Devices, LLC), and the concentration of produced p-nitrophenol was calculated.
# Sequence of human TNAP (P05186 18-502): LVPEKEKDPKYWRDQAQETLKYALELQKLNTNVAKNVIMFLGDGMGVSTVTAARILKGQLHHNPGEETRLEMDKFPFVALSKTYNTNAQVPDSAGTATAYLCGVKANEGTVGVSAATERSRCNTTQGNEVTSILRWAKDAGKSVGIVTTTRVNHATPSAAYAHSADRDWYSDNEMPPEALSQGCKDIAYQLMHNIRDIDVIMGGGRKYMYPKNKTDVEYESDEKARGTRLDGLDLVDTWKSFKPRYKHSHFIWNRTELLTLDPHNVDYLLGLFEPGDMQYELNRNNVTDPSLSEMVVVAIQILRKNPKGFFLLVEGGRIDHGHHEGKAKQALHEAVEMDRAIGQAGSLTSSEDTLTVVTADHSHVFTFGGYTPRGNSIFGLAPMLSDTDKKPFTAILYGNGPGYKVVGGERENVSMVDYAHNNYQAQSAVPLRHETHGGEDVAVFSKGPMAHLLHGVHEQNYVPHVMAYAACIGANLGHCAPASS
row,SMILES,IC50 [nM]
1,"COc1ccccc1S(=O)(=O)Nc1cnc2c(c1)C(=O)NCCO2 [Example 12, 2-Methoxy-N-(5-oxo-2,3,4,5-tetrahydropyrido[3,2-f][1,4]oxazepin-7-yl)benzenesulfonamide]",13.4
2,"COc1ccc(Br)cc1S(=O)(=O)Nc1cnc2c(c1)C(=O)N[C@@H](CO)CO2 [Example 29, 5-Bromo-N-[(3S)-3-(hydroxymethyl)-5-oxo-2,3,4,5-tetrahydropyrido[3,2-f][1,4]oxazepin-7-yl]-2-methoxybenzenesulfonamide]",1.2

# Tested on: plasma ALP (80-90% containing TNAP)
# Experiment: Inhibitory test of plasma TNAP activity in B6 mouse
# Type: in vivo
# Details: administered orally, average inhibition from 0 hour to 6 hours after administration
# Method: After blood sampling from the tail vein using a heparin-treated hematocrit capillary tube (EM Meister Hematocrit Capillary Tube, AS ONE Corp.) (as the sample before compound administration), each test compound suspended in a 0.5% methylcellulose solution (powder purchased from Wako Pure Chemical Industries, Ltd. was adjusted to 0.5% with Otsuka distilled water) was administered orally to the mouse. 1, 2, 4, 6, and 24 hours after the administration, blood was collected from the tail vein using a heparin-treated hematocrit capillary tube to obtain a plasma sample. The plasma sample was added to an assay buffer (1 M Tris, 1 M MgCl2, 20 mM ZnCl2, and water, pH 7.5), and the mixture was left standing for 5 minutes. Then, the absorbance at 405 nm was measured and used as a blank. The substrate pNPP was added to the plasma sample and incubated at room temperature for 180 minutes. Then, the absorbance (ABS: 405 nm) was measured using a microplate reader (model plus 384, Molecular Devices, LLC), and the concentration of produced p-nitrophenol was calculated. The blank was subtracted from all measurement values to calculate TNAP activity at each time point with the TNAP activity of the sample before compound administration defined as 100%. The pharmaceutical effect of the test compound was evaluated by the average inhibition of plasma ALP (80-90% containing TNAP) activity for 6 hours from 0 hour to 6 hours after the administration of the test compound. It was calculated according to the following expression: 100−((plasma ALP activity at 0 hr+plasma ALP activity at 1 hr)*1/2+(plasma ALP activity at 1 hr+plasma ALP activity at 2 hr)*1/2+(plasma ALP activity at 2 hr+plasma ALP activity at 4 hr)*2/2+(plasma ALP activity at 4 hr+plasma ALP activity at 6 hr)*2/2)/6.
row,SMILES,Plasma ALP inhibition (6 h ave. inhibition %) [%]
1,"O=C1NC2(CC2)COc2ncc([N-]S(=O)(=O)c3cc(Cl)ccc3OC(F)(F)F)cc21.[K+] [Example 58, Potassium {[5-chloro-2-(trifluoromethoxy)phenyl]sulfonyl}(5′-oxo-4′,5′-dihydrospiro[cyclopropane-1,3′-pyrido[3,2-f][1,4]oxazepin]-7′-yl)azanide]",50.3
2,"COc1ccc(F)cc1S(=O)(=O)[N-]c1cnc2c(c1)C(=O)N[C@@H](CO)CO2.[K+] [Example 52, Potassium [(5-fluoro-2-methoxyphenyl)sulfonyl][(3S)-3-(hydroxymethyl)-5-oxo-2,3,4,5-tetrahydropyrido[3,2-f][1,4]oxazepin-7-yl]azanide]",61.3
3,"COc1ccc(Br)cc1S(=O)(=O)[N-]c1cnc2c(c1)C(=O)N[C@@H](CO)CO2.[K+] [Example 53, Potassium [(5-bromo-2-methoxyphenyl)sulfonyl][(3S)-3-(hydroxymethyl)-5-oxo-2,3,4,5-tetrahydropyrido[3,2-f][1,4]oxazepin-7-yl]azanide]",59.2
4,"COc1ccc(OC)c(S(=O)(=O)[N-]c2cnc3c(c2)C(=O)NC2(CC2)CO3)c1.[K+] [Example 61, Potassium [(2,5-dimethoxyphenyl)sulfonyl](5′-oxo-4′,5′-dihydrospiro[cyclopropane-1,3′-pyrido[3,2-f][1,4]oxazepin]-7′-yl)azanide]",67.5
5,"O=C1N[C@@H](CO)COc2ncc([N-]S(=O)(=O)c3cc(Cl)ccc3OC(F)(F)F)cc21.[K+] [Example 54, Potassium {[5-chloro-2-(trifluoromethoxy)phenyl]sulfonyl}[(3S)-3-(hydroxymethyl)-5-oxo-2,3,4,5-tetrahydropyrido[3,2-f][1,4]oxazepin-7-yl]azanide]",74.8
6,"COc1ccc(F)cc1S(=O)(=O)[N-]c1cnc2c(c1)C(=O)NC1(CC1)CO2.[K+] [Example 57, Potassium [(5-fluoro-2-methoxyphenyl)sulfonyl](5′-oxo-4′,5′-dihydrospiro[cyclopropane-1,3′-pyrido[3,2-f][1,4]oxazepin]-7′-yl)azanide]",53.5
7,"COc1ccc(F)cc1S(=O)(=O)[N-]c1cnc2c(c1)C(=O)NCCO2.[K+] [Example 48, Potassium [(5-fluoro-2-methoxyphenyl)sulfonyl](5-oxo-2,3,4,5-tetrahydropyrido[3,2-f][1,4]oxazepin-7-yl)azanide]",61.6
8,"COc1ccc(Cl)cc1S(=O)(=O)[N-]c1cnc2c(c1)C(=O)NCCO2.[K+] [Example 47, Potassium [(5-chloro-2-methoxyphenyl)sulfonyl](5-oxo-2,3,4,5-tetrahydropyrido[3,2-f][1,4]oxazepin-7-yl)azanide]",54.7
9,"COc1ccc(Cl)cc1S(=O)(=O)[N-]c1cnc2c(c1)C(=O)N[C@@H](CO)CO2.[K+] [Example 51, Potassium [(5-chloro-2-methoxyphenyl)sulfonyl][(3S)-3-(hydroxymethyl)-5-oxo-2,3,4,5-tetrahydropyrido[3,2-f][1,4]oxazepin-7-yl]azanide]",63.7
10,CCOc1ccc(F)cc1S(=O)(=O)[N-]c1cnc2c(c1)C(=O)NC1(CC1)CO2.[K+] [Example 59],66.2
11,"O=C1NCCOc2ncc([N-]S(=O)(=O)c3cc(Cl)ccc3OC(F)(F)F)cc21.[K+] [Example 50, Potassium {[5-chloro-2-(trifluoromethoxy)phenyl]sulfonyl}(5-oxo-2,3,4,5-tetrahydropyrido[3,2-f][1,4]oxazepin-7-yl)azanide]",56.0
12,"COc1ccc(Cl)cc1S(=O)(=O)[N-]c1cnc2c(c1)C(=O)NC1(CC1)CO2.[K+] [Example 55, Potassium [(5-chloro-2-methoxyphenyl)sulfonyl](5′-oxo-4′,5′-dihydrospiro[cyclopropane-1,3′-pyrido[3,2-f][1,4]oxazepin]-7′-yl)azanide]",58.9
